Data published in ChEMBL document CHEMBL1201862, “PubChem BioAssay data set” (2004).
Where a name gives a salt, the structure may show the parent alone. Active and inactive are the calls of the source.

What was measured:
[1] = non-specific 3'UTR reporter inhibition in Clone20-Shn3RL – cell-based, Renilla luciferase, cherry-picked, counter-screen for Shn3 inhibitor project, dose response (AID 624133); type: functional
[2] = loss of viability in HepG2 cells – cell-based, CellTiter-Glo, cherry-picked, cytotoxicity control for Shn3 inhibitor project, dose response (AID 624134); type: functional
[3] = Shn3 3'UTR reporter signal decrease – cell-based, Clone20 osteoblasts, firefly luciferase, cherry-pick, set 2, Schnurri-3 inhibitor project, dose response (AID 720490); type: functional;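 note: actives lower the luminescence signal as inhibitors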
[4] = reduction of Shn3 3'UTR-driven luciferase in osteoblasts – cell-based, Clone20 osteoblasts, firefly luciferase, cherry-picked, dose response (AID 624132); type: functional;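 note: firefly luciferase luminescence from reporter carrying the Shn3 3'UTR in osteoblasts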
[5] = target: Prothrombin (Homo sapiens, UniProt P00734); experiment: Thrombin 1536 HTS Dose Response Confirmation. [Related pubchem assays: 1046 (Thrombin 1536 HTS; hits were confirmed in this assay)]; type: functional
[6] = target: Solute carrier family 12 member 2/member 5 (Homo sapiens, UniProt P55011+Q9H2X9); experiment: KCC2 and NKCC1 inhibition by rubidium flux, cell-based, NKCC1 counter-screen (AID 1734); type: functional, HEK293
[7] = target: T1, Small ubiquitin-related modifier 1 (Homo sapiens, UniProt P63165); experiment: SUMO1 protein-protein binding blockers, potency – biochemical, FRET, dose response (AID 624383); type: functional; settings: read-out: IC50_Mean
T1 sequence (P63165 whole entry): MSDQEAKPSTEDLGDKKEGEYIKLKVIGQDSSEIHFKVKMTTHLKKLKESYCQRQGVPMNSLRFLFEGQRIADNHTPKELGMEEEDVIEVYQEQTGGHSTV

[8] = target: T1, Small ubiquitin-related modifier 1; experiment: SUMO1 protein interaction blockers, potency – biochemical, fluorescence polarization, uHTS hits, dose response (AID 624382); type: functional; settings: read-out: IC50_Mean
[9] = target: Kallikrein-7 (Homo sapiens, UniProt P49862); experiment: Fluorescence Intensity-based biochemical primary high throughput dose response assay to identify activators of kallikrein-7 (K7) zymogen.
Kallikrein-7, sequence (P49862 whole entry): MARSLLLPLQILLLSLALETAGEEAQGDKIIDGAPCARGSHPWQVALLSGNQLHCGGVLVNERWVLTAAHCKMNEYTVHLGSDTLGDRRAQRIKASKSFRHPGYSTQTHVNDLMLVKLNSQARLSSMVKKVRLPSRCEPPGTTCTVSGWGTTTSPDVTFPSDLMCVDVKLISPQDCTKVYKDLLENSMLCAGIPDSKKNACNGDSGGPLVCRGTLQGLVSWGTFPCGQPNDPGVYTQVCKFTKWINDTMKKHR

[10] = target: Paired box protein Pax-8 (Homo sapiens, UniProt Q06710); experiment: PAX8 transcriptional activity inhibition in RMG-I – RMG-I cells, luciferase, cherry-pick, dose response (AID 687027); type: functional, cell-based;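 note: luciferase reporter driven by Pax8 target thyroperoxidase promoter measured by SteadyGlo luminescence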
Paired box protein Pax-8, sequence (Q06710 whole entry): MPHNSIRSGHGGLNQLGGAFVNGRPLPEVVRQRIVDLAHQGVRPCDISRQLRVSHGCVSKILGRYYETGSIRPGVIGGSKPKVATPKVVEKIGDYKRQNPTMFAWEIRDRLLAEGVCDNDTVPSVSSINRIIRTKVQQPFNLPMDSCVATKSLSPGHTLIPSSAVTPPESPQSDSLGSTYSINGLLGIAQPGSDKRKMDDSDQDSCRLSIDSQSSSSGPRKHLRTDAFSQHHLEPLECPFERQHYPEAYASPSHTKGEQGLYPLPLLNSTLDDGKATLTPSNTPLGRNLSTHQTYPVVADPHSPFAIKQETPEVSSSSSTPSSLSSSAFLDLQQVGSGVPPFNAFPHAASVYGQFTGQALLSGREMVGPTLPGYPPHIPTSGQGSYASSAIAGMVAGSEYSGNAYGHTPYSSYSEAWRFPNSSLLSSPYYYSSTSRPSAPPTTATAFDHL

[11] = Dd2 parasite growth inhibition in erythrocytes – SYBR Green, dry powder samples, set 9, dose response (AID 1159568); type: functional, cell-based
[12] = cells
[13] = target: T2, Oxysterols receptor LXR-beta (Homo sapiens, UniProt P55055); type: functional, cell-based;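 note: Cell-based luminescence dose-response assay of agonist activity at LXR, run as a confirmatory counterscreen to a daf-12 agonist screen; HEK293 cells with Gal4-LXR fusion and GAL4-driven luciferase reporter; agonist potency from rising luciferase signal of a Gal4-LXR reporter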
T2 sequence (P55055 whole entry): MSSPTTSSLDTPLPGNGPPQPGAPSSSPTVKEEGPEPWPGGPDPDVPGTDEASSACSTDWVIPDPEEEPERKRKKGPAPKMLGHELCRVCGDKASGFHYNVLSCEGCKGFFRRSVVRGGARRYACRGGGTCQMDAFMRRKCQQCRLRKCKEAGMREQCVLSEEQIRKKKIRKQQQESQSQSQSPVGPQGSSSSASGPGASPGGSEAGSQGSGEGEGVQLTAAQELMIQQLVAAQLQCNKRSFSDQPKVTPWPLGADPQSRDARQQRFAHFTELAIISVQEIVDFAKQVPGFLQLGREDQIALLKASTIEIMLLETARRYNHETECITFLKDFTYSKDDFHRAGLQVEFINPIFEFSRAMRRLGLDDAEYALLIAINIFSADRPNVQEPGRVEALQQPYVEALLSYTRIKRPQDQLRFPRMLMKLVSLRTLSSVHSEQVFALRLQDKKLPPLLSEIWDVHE

[14] = IC50 of insulin release inhibition, rat insulinoma INS-1E line, 5 mM glucose, cell-based (AID 1117331); type: functional
[15] = toxicity to human hepatoma HepG2 cells – cell-based, cherry-picked samples, cytotoxicity control, dose response (AID 1159577); type: functional
[16] = P. falciparum Dd2 growth inhibitors, dose response, SYBR Green, cherry-picked samples (AID 1159567); type: functional, cell-based
[17] = Trypanosoma cruzi growth suppression in host cells – NIH3T3 host cells, beta-gal luminescence, confirmation (AID 2044); type: functional, cell-based;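 note: intracellular parasites grown in NIH/3T3 mouse fibroblasts as host cells; luminescent beta-galactosidase reporter signal from transgenic T. cruzi replicating inside host cells; inhibitors lower the luminescence signal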
[18] = NIH3T3 cell viability loss – ATP luminescence, mouse fibroblasts, counter-screen, dose response (AID 2010); type: functional, cell-based;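 note: cells exposed to compound for about 90 hours before reading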
[19] = cells; remark: listed apart in the source

COc1cccc(-n2c(C)nc3c(cnn3-c3ccc(Cl)cc3)c2=O)c1
AC50 [1]: 2.98 µM (active) | AC50 [2]: 61.4 µM (active) | AC50 [3]: 2.14 µM (active) | AC50 [4]: 0.391 µM (active)

O=C(NC(=S)Nn1cnnc1)c1ccccc1Cl
IC50 [5]: > 50 µM (not active)

CN(Cc1ccccc1)S(=O)(=O)c1ccc(Cl)c(C(=O)NCCc2ccccn2)c1
IC50 [6]: 2.5 µM (active)

O=C(Cc1cc(=O)oc2cc(O)ccc12)NN=Cc1ccc(N(CCCl)CCCl)cc1
IC50 [7]: 8.3 µM (active) | IC50 [8]: > 66.6 µM (inactive) | EC50 [9]: > 23.2 µM (inactive)

Cc1cccn2c(=O)c3cc(C(=O)N4CCOCC4)n(C)c3nc12
EC50 [9]: > 2.58 µM (active)

C[C@@H]1CN([C@@H](C)CO)C(=O)c2cc(N(C)C)ccc2O[C@@H](C)CCCCO[C@H]1CN(C)S(=O)(=O)c1ccc(F)cc1
AC50 [10]: 6.76 µM (active) | AC50 [11]: 19.4 µM (active)

CCOC(=O)c1cc(-c2cccc(O)c2)oc1C
EC50 [12]: > 67.5 µM (inactive) | EC50 [13]: > 67.5 µM (inactive)

C[C@@H](C1=C(CCN(C)C)Cc2ccccc21)c1ccccn1
IC50 [14]: 8.41 µM (inactive)

COc1cc(CN2C[C@@H]3N[C@H](C2)[C@H]3c2ccc(/C=C/c3ccccc3)cc2)cc(OC)c1
AC50 [15]: 7.85 µM (active) | AC50 [16]: 2.11 µM (active)

C(=C\c1ccc([C@@H]2[C@@H]3CN(Cc4nccs4)C[C@H]2N3)cc1)/c1ccccc1
AC50 [15]: 7.83 µM (active) | AC50 [16]: 3.67 µM (active)

O=C(N/N=C/c1ccc([N+](=O)[O-])o1)c1cn(-c2ccccc2)nc1-c1ccccc1
EC50 [17]: < 0.1 µM (active) | EC50 [18]: > 60 µM (not active) | EC50 [19]: 0.054 µM (active)

C[C@@H]1CCCCO[C@@H](CN(C)S(=O)(=O)c2ccc(F)cc2)[C@H](C)CN([C@H](C)CO)C(=O)c2cc(N(C)C)ccc2O1
AC50 [11]: 4.62 µM (active)

CCN1CCCC(OC(=O)C(c2ccccc2)c2ccccc2)C1 (centres undefined) [PIPERIDOLATE HYDROCHLORIDE]
IC50 [14]: 18.2 µM (inactive)
